Source: patent US20230013669A1, “Antibacterial Treatment Using a Cannabinoid and an Active Agent” (priority 2019, published 2023)
In brackets after ≈: the same amount, converted by molar mass. Several values for one entry are separate records, joined by “and”; a condition that tells them apart may be missing. Equal entries are not always repeated. Where two headings read alike, the source gives them in different places.

Columns and labels:
Format in all cases: cell-based
[1] = test system: Pseudomonas aeruginosa ATCC 27853; assay: Synergy assay CBD with PMBN (Example 10); conditions: for FICI: Table 40
Experimental: (§1) The inoculum was then diluted in CaMHB to give a mid-log phase cultures and 40 μL was added to each well from column 1 to column 18, and column 23. 45 μL of the inoculum was added to each well from column 19 to column 22 to give the final cell density of 5×10^5 CFU/mL. The plates were incubated at 37° C. for 18-20h.
(§2) Optical density was read at 600 nm (OD600) using Gen5 Spectrophotometer. […] Analysis was performed using Microsoft Excel.
(§3) CBD was tested in combination with PMBN in a 14×9 matrix for each. CBD and PMBN were also included on the plate individually (from column 20 and 2) as positive controls and to collect the MIC values.
(§4) CBD was two-fold serial diluted across the wells of a 384-wells plate from row B to O (FIG. 1), while PMBN was two-fold serial diluted across the wells of a 384-wells plate from column 2 to 10 (FIG. 2). The inhibitor controls of each antibiotic/compound were 1:2 serial diluted down the plate at column 19, 20, 21 (respectively A, B and C antibiotic).
(§5) 5 μL of the CBD mother plate were plated vertically intro tested 384-well PS plate (for column 2-10). 5 μL were stamped out horizontally from the PMBN mother plate. Resulting in a final volume of 10 μL in the test plates. 5 μL antibiotic were added to the control column (column 20, 21). Column 23 was the growth control and column 24 was media control.

[2] = test system: Escherichia coli ATCC 25922; assay: Synergy assay CBD with PMBN (Example 10); conditions: for FICI: Table 40
Experimental: as §1, §2, §3, §4, §5

[3] = test system: Klebsiella pneumoniae ATCC 700603; assay: Synergy assay CBD with PMBN (Example 10)
Experimental: as §1, §2, §3, §4, §5

[4] = test system: Acinetobacter baumannii ATCC 19606; assay: Synergy assay CBD with PMBN (Example 10); conditions: for FICI: Table 40
Experimental: as §1, §2, §3, §4, §5

[5] = test system: Klebsiella pneumoniae ATCC 13883 (GN_003 / GN_004); assay: MIC micro-broth dilution assay (Example 1 method)
[6] = test system: Klebsiella pneumoniae ATCC 700603; assay: MIC micro-broth dilution assay (Example 1 method); conditions: Klebsiella pneumoniae, ATCC700603; CBD alone; read-out: CBD MIC
Experimental: Methods were as for Example 1. Cannabidiol was tested in combination with cefotetan.
Methods were as for Example 1. Cannabidiol was tested in combination with aztreonam.
Methods were as for Example 1. Cannabidiol was tested in combination with cefepime.
Methods were as for Example 1. Cannabidiol was tested in combination with octapeptin C4.
Methods were as for Example 1. Cannabidiol was tested in combination with Spero SPR206. The experiments were carried out three times.

[7] = test system: Escherichia coli ATCC 25922 (GN_001); assay: MIC micro-broth dilution assay (Example 1 method); conditions: for MIC: ATCC25922
[8] = Example 10, CBD + PMBN, listed as CBD
[9] = Example 10, panel of wild type Gram-negative bacteria
[10] = CBD + PMBN at 1 (μg/mL per Table 39)
[11] = CBD + PMBN at 16, listed as CBD

C=C(C)C1CCC(C)=CC1c1c(O)cc(CCCCC)cc1O (stereo not shown) [Cannabidiol, 2-[3-methyl-6-(1-methylethenyl)-2-cyclohexen-1-yl]-5-pentyl-1,3-benzenediol]
CBD MIC with PMBN (MCC_9298) at concn 1 μg/mL ([1]; Example 10): 64 mg/L
CBD MIC with PMBN (MCC_9298) at concn 2 μg/mL ([1]; Example 10): 64 mg/L
CBD MIC with PMBN (MCC_9298) at concn 32 μg/mL ([1]; Example 10): 32 mg/L
FICI range [1, 8]: 0.28-1.13 and 0.25-1.13
CBD MIC with PMBN (MCC_9298) at concn 4 μg/mL ([1]; Example 10, listed as CBD): 64 mg/L and 32 mg/L
CBD MIC with PMBN (MCC_9298) at concn 8 μg/mL ([1]; Example 10, listed as CBD): 64 mg/L and 32 mg/L
CBD MIC with PMBN (MCC_9298) at concn 16 μg/mL ([1]; Example 10, listed as CBD): 64 mg/L and 32 mg/L
CBD in combination with PMBN: synergy [1, 9]: synergistic activity
FICI [1, 10]: 0.2812
FICI ([1]; CBD + PMBN at 2): 0.3125
FICI ([1]; CBD + PMBN at 4, listed as CBD): 0.375 and 0.25
FICI ([1]; CBD + PMBN at 8, listed as CBD): 0.5 and 0.375
FICI [1, 11]: 0.75 and 0.625
FICI ([1]; CBD + PMBN at 32): 1.125
CBD MIC with PMBN (MCC_9298) at concn 1 μg/mL ([2]; Example 10): 64 mg/L
CBD MIC with PMBN (MCC_9298) at concn 2 μg/mL ([2]; Example 10): 64 mg/L
CBD MIC with PMBN (MCC_9298) at concn 32 μg/mL ([2]; Example 10): 64 mg/L
FICI range [2, 8]: 0.28-1.25 and 0.28-1.5
CBD in combination with PMBN: synergy [2, 9]: synergistic activity
FICI [2, 10]: 0.2812
FICI ([2]; CBD + PMBN at 2): 0.3125
FICI [2, 11]: 0.75 and 1.5
FICI ([2]; CBD + PMBN at 32): 1.25
CBD MIC with PMBN (MCC_9298) at concn 1 μg/mL ([3]; Example 10): >256 mg/L
CBD MIC with PMBN (MCC_9298) at concn 2 μg/mL ([3]; Example 10): >256 mg/L
CBD MIC with PMBN (MCC_9298) at concn 32 μg/mL ([3]; Example 10, listed as CBD): 64 mg/L and 32 mg/L
CBD in combination with PMBN: synergy [3, 9]: synergistic activity
FICI ([3]; Table 40, CBD + PMBN at 2): 1.0625
CBD MIC with PMBN (MCC_9298) at concn 1 μg/mL ([4]; Example 10): 32 mg/L
CBD MIC with PMBN (MCC_9298) at concn 2 μg/mL ([4]; Example 10): 32 mg/L
CBD MIC with PMBN (MCC_9298) at concn 4 μg/mL ([4]; Example 10): 32 mg/L
CBD MIC with PMBN (MCC_9298) at concn 8 μg/mL ([4]; Example 10): 32 mg/L
CBD MIC with PMBN (MCC_9298) at concn 16 μg/mL ([4]; Example 10): 32 mg/L
CBD MIC with PMBN (MCC_9298) at concn 32 μg/mL ([4]; Example 10): 32 mg/L
FICI range ([4]; Example 10, CBD + PMBN): 0.16-1.13
CBD in combination with PMBN: synergy [4, 9]: synergistic activity
FICI [4, 10]: 0.1562
FICI ([4]; CBD + PMBN at 2): 0.1875
FICI ([4]; CBD + PMBN at 4): 0.25
FICI ([4]; CBD + PMBN at 8): 0.375
FICI ([4]; CBD + PMBN at 16): 0.625
FICI ([4]; CBD + PMBN at 32): 1.125
MIC ([5]; ATCC 13883 / ATCC 700603, CBD alone, Klebsiella pneumoniae ATCC 700603 as printed in the table, read-out: CBD MIC): 256 mg/L (≈ 814 µM)
Minimum Inhibitory Concentration (MIC) ([5]; Example 4 Table 15, GN_003, compound alone, replicates): >256 mg/L
Minimal Inhibitory Concentration (MIC) ([5]; Example 7 Table 27, GN_004, compound alone, replicates): >256 mg/L
CBD MIC ([5]; Klebsiella pneumoniae ATCC 700603 (so in the source), CBD alone): 256 mg/L
MIC ([5]; Klebsiella pneumoniae, ATCC13883, Example 4 Table 15, GN_003, compound alone, replicates, read-out: Minimum Inhibitory Concentration (MIC)): > 256 mg/L
MIC ([5]; Klebsiella pneumoniae, ATCC13883, Example 7 Table 27, GN_004, compound alone, replicates, read-out: Minimal Inhibitory Concentration (MIC)): > 256 mg/L
MIC [6]: 256 mg/L
MIC ([7]; CBD alone, Escherichia coli ATCC 25922, read-out: CBD MIC): 256 mg/L (≈ 814 µM)
CBD MIC ([7]; CBD alone): 256 mg/L
CBD MIC ([7]; Escherichia coli ATCC 25922, CBD alone): 256 mg/L
MIC ([7]; Escherichia coli, Example 1 Table 3, GN_001, compound alone, replicates, read-out: Minimal Inhibitory Concentration (MIC)): > 256 mg/L
MIC ([7]; Escherichia coli, Example 3 Table 11, GN_001, compound alone, replicates, read-out: Minimum Inhibitory Concentration (MIC)): > 256 mg/L
Minimal Inhibitory Concentration (MIC) ([7]; Example 1 Table 3, GN_001, compound alone, replicates): >256 mg/L
Minimum Inhibitory Concentration (MIC) ([7]; Example 3 Table 11, GN_001, compound alone, replicates): >256 mg/L
Minimum Inhibitory Concentration (MIC) ([7]; Example 6 Table 23, GN_001, compound alone, replicates): >256 mg/L
Minimal Inhibitory Concentration (MIC) ([7]; Example 7 Table 27, GN_001, compound alone, replicates): >256 mg/L
